In patent US12685781B2, “Anti-HER3 antibody-drug conjugate” (DAIICHI SANKYO COMPANY, LIMITED, priority 2014, dated 2026):

Experiments:
[1] = test system: human melanoma cell line HT-144; test: Antitumor test, human melanoma HT-144 in NMRI nude mice; assay type: in vivo, mouse; details: 25 mg/kg subcutaneously twice a week
Description: Five- to 6-week-old female NMRI nude mice having a body weight of 22 to 26 g after acclimation were used. The mice were placed in individually ventilated cages (IVC, 4 mice at maximum per cage) which were kept at room temperature and a constant humidity. After randomization, the body weights of the mice were measured every other day, and the behaviors of the animals were recorded every day.
5×10^6 cells of a human melanoma cell line HT-144 (HTB-63) from ATCC were suspended in a solution prepared from 50 uL of PBS and Matrigel (PBS: PAA #H21-002, Matrigel: BD #354230) mixed at a ratio of 1:1, and subcutaneously transplanted to the right side area of the body of each NMRI nude mouse using a 29 G needle.
The measurement of the body weights and the tumor sizes and the measurement and calculation of the tumor volumes were carried out in the same manner as Test Example 6.
At Day 22 when the tumor size reached about 150 mm^3, 80 animals were randomly divided into 8 groups on the basis of their tumor sizes. At the same day, U1-59 or the antibody-drug conjugate (3), (10), or (13) or PBS for a control group were administered into the tail vein of each animal at the following doses.
Administration group: PBS was intravenously injected once a week at the same dose as the antibody-drug conjugate.
Administration group: U1-59 was subcutaneously injected twice a week at 25 mg/kg. […]

HER3 = HER3 (Homo sapiens, UniProt P21860); test: Reduction in expression of HER3 on cell surface (internalization), flow cytometry in HCC1569; assay type: cell-based; design: host or cells: HCC1569 (human breast cancer cell line); details: HCC1569, 10 ug/mL, 37 C, 1 hr
Description: HER3 internalization by U1-59 and each antibody-drug conjugate was evaluated by flow cytometry. 70,000 living cells of HCC1569 (from ATCC) were suspended in 0.5 mL of RPMI1640 (Invitrogen Corp., #31870-025) (containing 10% FBS (Invitrogen Corp., #10270-106 or PAN Biotech GmbH, #1505-P131304) and 2 mM glutamine (Invitrogen Corp., #25030-024)) and inoculated to each well of a 24-well plate. The cells were cultured for 4 days, and the medium was replaced with 0.5 mL of a fresh medium before the start of the internalization test. 5 ug of the antibody or each antibody-drug conjugate was added to 0.5 mL in each well of the 24-well plate such that the final concentration was 10 ug/mL. The cells were cultured for 1 hour at 37 C in the presence of the antibody or the antibody-drug conjugate. […]
For flow cytometry analysis, the cells were washed once with PBS and dissociated from the plate using 5 mM EDTA (100 uL/well) dissolved in ACCUTASE® SOLUTION (Millipore Corp., SCR005) or PBS. […] The fluorescence signals of living cells were measured using Accuri C6 Flow cytometer. […]
In order to quantify HER3-specific signals, values of cells stained with only the secondary antibody or 7-AAD were subtracted from FL-2 values of cells stained with the primary antibody and the secondary antibody, and further 7-AAD. […]

## U1-59: anti-HER3 human antibody; heavy and light chain variable regions SEQ ID NOs: 70 and 72; produced per WO 2007/077028
[1]
  day after transplantation at which group was euthanized because tumor sizes exceeded acceptable maximum level: 52 days
HER3
  reduction in HER3 expression on cell surface: about 50%
